The numbers were not newly measured in patent US20180243282A1, “Preparation and Use of Combination Enzyme and Gastrointestinal Modulator Delivery Systems” (Curemark, LLC, priority 2010, published 2018), which cites them from elsewhere.

For data set [1] the following is noted: in vivo.
For data set [2] the following is noted: acidic conditions in the stomach.
For data set [3] the following is noted: in vivo. The source holds these as a separate data set.

Consider sucralfate, for which, in data set [1], the systemic absorption entry is given as “lack of systemic absorption” and the systemic toxicity result is recorded as “no systemic toxicity”. The protective coating lasts result in data set [2] is reported as “up to 6 hours”.
Consider `CN/C(=N/CCSCc1nc[nH]c1C)NC#N` [cimetidine], for which the clearance by hemodialysis entry in data set [3] is on record as “cleared by hemodialysis”.
In the case of Bismuth, in data set [1], the excretion result is reported as “excreted in the feces” and the systemic absorption entry was “largely unabsorbed”.
